For the assay, the target named is T1, NLRP3 inflammasomes (Homo sapiens, UniProt Q96P20).
T1 construct: endogenous in cells; host or cells: THP-1 human monocytic cells, PMA-differentiated, LPS-primed, nigericin-stimulated
T1 sequence (Q96P20 whole entry): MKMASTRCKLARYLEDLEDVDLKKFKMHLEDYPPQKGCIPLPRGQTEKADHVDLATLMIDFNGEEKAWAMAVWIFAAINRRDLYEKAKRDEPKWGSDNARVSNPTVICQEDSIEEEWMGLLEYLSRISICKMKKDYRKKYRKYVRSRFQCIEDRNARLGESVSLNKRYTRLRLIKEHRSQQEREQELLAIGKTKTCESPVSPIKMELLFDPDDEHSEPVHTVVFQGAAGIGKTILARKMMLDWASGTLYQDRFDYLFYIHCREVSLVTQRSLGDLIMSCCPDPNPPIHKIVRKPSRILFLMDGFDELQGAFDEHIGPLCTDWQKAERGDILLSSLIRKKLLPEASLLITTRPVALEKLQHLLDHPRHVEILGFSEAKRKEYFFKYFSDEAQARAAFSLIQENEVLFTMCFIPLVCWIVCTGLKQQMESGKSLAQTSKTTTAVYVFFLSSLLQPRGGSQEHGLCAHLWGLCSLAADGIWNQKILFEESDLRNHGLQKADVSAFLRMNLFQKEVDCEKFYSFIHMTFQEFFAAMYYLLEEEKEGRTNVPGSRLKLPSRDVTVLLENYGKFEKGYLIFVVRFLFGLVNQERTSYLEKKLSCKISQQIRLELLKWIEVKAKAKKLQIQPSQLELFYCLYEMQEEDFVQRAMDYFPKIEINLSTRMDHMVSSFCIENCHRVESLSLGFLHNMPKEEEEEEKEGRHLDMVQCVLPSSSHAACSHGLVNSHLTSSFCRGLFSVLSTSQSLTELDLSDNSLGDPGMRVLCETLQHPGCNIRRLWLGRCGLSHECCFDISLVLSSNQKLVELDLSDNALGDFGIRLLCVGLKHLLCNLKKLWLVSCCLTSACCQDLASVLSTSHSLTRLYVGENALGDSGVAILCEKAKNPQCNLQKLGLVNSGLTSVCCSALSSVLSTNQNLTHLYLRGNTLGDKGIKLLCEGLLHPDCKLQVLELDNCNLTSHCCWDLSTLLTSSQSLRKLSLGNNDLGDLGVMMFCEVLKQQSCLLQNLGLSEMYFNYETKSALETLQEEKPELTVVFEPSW
Kind of assay: THP-1 pyroptosis test (cell pyroptosis test). Type of assay: cell-based. Particulars: THP-1 cells differentiated with PMA, LPS stimulation, 10 μM nigericin, drug 0.001-10 μM, MTT absorbance 562 nm. The protocol: In vitro activity screening was performed on small molecule compounds targeting inhibition on NLRP3 inflammasomes using THP-1 human monocytic cells (THP-1). THP-1 can be induced to differentiate into macrophages by phorbol ester (PMA), and the macrophages M1 can be induced to polarize by lipopolysaccharide (LPS) to release cytokines such as TNF-α, and IL-6, so as to establish a typical inflammatory model.
THP-1 cells in a logarithmic growth phase were collected to prepare a 1×10^6 cells/mL cell suspension, PMA was added to achieve a final concentration of 300 ng/mL in the cell suspension, then 1×10^5 cells were inoculated to each well of a 96-well plate, and the cells were cultured in a 37° C., 5% CO2 cell incubator for 24 hours and induced to differentiate into macrophages.
The next day, LPS was added to stimulate and induce the cells to produce an inflammatory model. […] In the 200 μL system of the 96-well plate, the final concentration of each drug was 0.001-10 μM, and the final concentration of the nigericin was 10 μM.
Cell apoptosis protection rate=[(X−C0)/(C−C0)]×100%
wherein, C, C0 and X represent average absorbance values of the normal cell group, the blank control group, and the drug treatment group, respectively. Finally, cell survival curves were fitted by Graphpad Prism 5.0 software and EC50 values of the compounds to be tested in inhibiting pyroptosis caused by NLRP3 inflammasomes were calculated.
As a reminder, the EC50 is the concentration at which the effect is half-maximal. Lower therefore signals an effect from little substance. Take `CN1CC[C@@H](Nc2nnc(-c3ccc(C(F)(F)F)cc3O)c3c2cnn3C)C1` [Compound 72]: the EC50 was in the range of 20 to 100 nM.
Turning to `CCN1CCC[C@H]1CNc1nnc(-c2ccc(C(F)(F)F)cc2O)c2ccccc12` [Compound 28], the EC50 was in the range of 100 to 500 nM.
`Cc1cnc2c(N[C@@H]3CCCN(C)C3)nnc(-c3ccc(OC(F)(F)F)cc3O)c2c1` [Compound 61, 2-(3-methyl-8-{[(3R)-1-methylpiperidin-3-yl]amino}pyridino[2,3-d]pyridazin-5-yl)-5-(trifluoromethoxy)phenol]: the EC50 was less than 20 nM.
`C[C@H](Nc1nnc(-c2ccc(C(F)(F)F)cc2O)c2ccccc12)c1ccccc1` [Compound 8, (S)-2-(4-((1-phenylethyl)amino)phthalazin-1-yl)-5-(trifluoromethyl)phenol] returned an EC50 greater than 1000 nM.
In the case of `Cc1ccc(O)c(-c2nnc(N[C@@H]3CCCN(C)C3)c3ccccc23)c1` [Compound 47, (R)-4-methyl-2-(4-((1-methylpiperidin-3-yl)amino)phthalazin-1-yl)phenol], the EC50 was greater than 1000 nM.
For `CN1CCC(CNc2nnc(-c3ccc(C(F)(F)F)cc3O)c3c2cnn3C)CC1` [Compound 75] the value was 100 to 500 nM; for `C[C@H](Nc1nnc(-c2ccc(C(F)(F)F)cc2O)c2ccccc12)c1ccc(F)cc1` [Compound 10, (S)-2-(4-((1-(4-fluorophenyl)ethyl)amino)phthalazin-1-yl)-5-(trifluoromethyl)phenol], greater than 1000 nM; for `CN1CCC(Nc2nnc(-c3ccc(F)cc3O)c3cnn(C)c23)CC1` [Compound 69], greater than 1000 nM.
In turn, `CN1CC[C@@H](Nc2nnc(-c3ccc(C(F)(F)F)cc3O)c3ccccc23)C1` [Compound 24, (R)-2-(4-((1-methylpyrrolidin-3-yl)amino)phthalazin-1-yl)-5-(trifluoromethyl)phenol] gave an EC50 of less than 20 nM.
In turn, `CN(C)[C@H]1CC[C@@H](Nc2nnc(-c3ccc(C(F)(F)F)cc3O)c3ccccc23)CC1` [Compound 19] registered a concentration for a half-maximal effect (EC50) of 500 to 1000 nM.
In the case of `Cc1ccc2c(N[C@@H]3CCCN(C)C3)nnc(-c3ccc(C(F)(F)F)cc3O)c2n1` [Compound 53, (R)-2-(2-methyl-5-((1-methylpiperidin-3-yl)amino)pyridino[2,3-d]pyridazin-8-yl)-5-(trifluoromethyl)phenol], the EC50 lay within 100 to 500 nM.
With `CN1CCC[C@@H](Nc2nnc(-c3cc(F)ccc3O)c3ccccc23)C1` [Compound 46, (R)-4-fluoro-2-(4-((1-methylpiperidin-3-yl)amino)phthalazin-1-yl)phenol], the EC50 fell in the range of 20 to 100 nM.
`CN1CCC(Nc2nnc(-c3ccc(C(F)(F)F)cc3O)c3ccccc23)CC1` [Compound 35, 2-(4-((1-methylpiperidin-4-yl)amino)phthalazin-1-yl)-5-(trifluoromethyl)phenol] had an EC50 of 500 to 1000 nM.
For `CN1CCC[C@@H](Nc2nnc(-c3ccc(C(F)(F)F)cc3O)c3ccc(P(C)(C)=O)cc23)C1` [Compound 43, (R)-(1-(2-hydroxy-4-(trifluoromethyl)phenyl)-4-((1-methylpiperidin-3-yl)amino)phthalazin-6-yl)dimethylphosphine oxide] the value was 500 to 1000 nM; for `CCN1CC[C@@H](Nc2nnc(-c3ccc(C(F)(F)F)cc3O)c3ccccc23)C1` [Compound 25, (R)-2-(4-((1-ethylpyrrolidin-3-yl)amino)phthalazin-1-yl)-5-(trifluoromethyl)phenol], less than 20 nM.
Turning to `Cn1cnc2c(-c3ccc(C(F)(F)F)cc3O)nnc(NCCN3CCOCC3)c21` [Compound 77], the EC50 was greater than 1000 nM.
With `CN1CCC[C@@H](Nc2nnc(-c3ccc(C(F)(F)F)cc3O)c3cscc23)C1` [Compound 54, (R)-2-(4-((1-methylpiperidin-3-yl)amino)thieno[3,4-d]pyridazin-1-yl)-5-(trifluoromethyl)phenol], the EC50 was less than 20 nM.
`CN1C[C@H](Nc2nnc(-c3ccc(C(F)(F)F)cc3O)c3c2cnn3C)CCC1=O` [Compound 66] returned an EC50 of 100 to 500 nM.
The compound `CN1CCC[C@@H](Nc2nnc(-c3ccccc3O)c3ccccc23)C1` [Compound 31, (R)-2-(4-((1-methylpiperidin-3-yl)amino)phthalazin-1-yl)phenol] showed an EC50 of 500 to 1000 nM.
For `CN1CCC[C@@H](Nc2nnc(-c3ccc(C(F)(F)F)cc3O)c3cnn(C)c23)C1` [Compound 62, (R)-2-(1-methyl-7-((1-methylpiperidin-3-yl)amino)-1H-pyrazolo[3,4-d]pyridazin-4-yl)-5-(trifluoromethyl)phenol] the value was less than 20 nM; for `COc1ccc2c(-c3ccc(C(F)(F)F)cc3O)nnc(N[C@@H]3CCCN(C)C3)c2c1` [Compound 6, (R)-2-(6-methoxy-4-((1-methylpiperidin-3-yl)amino)phthalazin-1-yl)-5-(trifluoromethyl)phenol], less than 20 nM.
For `Cc1cnc2c(-c3ccc(C(F)(F)F)cc3O)nnc(N[C@@H]3CCCN(C)C3)c2c1` [Compound 49, 2-(3-methyl-5-{[(3R)-1-methylpiperidin-3-yl]amino}pyridino[2,3-d]pyridazin-8-yl)-5-(trifluoromethyl)phenol] the value was less than 20 nM.
Turning to `CN1CCC[C@@H](Nc2nnc(-c3ccc(F)cc3O)c3ccccc23)C1` [Compound 44, (R)-5-fluoro-2-(4-((1-methylpiperidin-3-yl)amino)phthalazin-1-yl)phenol], the EC50 was in the range of 20 to 100 nM.
`Cc1cnc2c(N[C@@H]3CCCN(C)C3)nnc(-c3ccc(C(F)(F)F)cc3O)c2c1` [Compound 48, 2-(3-methyl-8-{[(3R)-1-methylpiperidin-3-yl]amino}pyridino[2,3-d]pyridazin-5-yl)-5-(trifluoromethyl)phenol] came in with an EC50 of less than 20 nM.
For `CN1CCC(Nc2nnc(-c3ccc(C(F)(F)F)cc3O)c3c2cnn3C)CC1` [Compound 68] the value was 500 to 1000 nM; for `Cc1ccc2c(-c3ccc(C(F)(F)F)cc3O)nnc(N[C@@H]3CCCN(C)C3)c2c1` [Compound 4, (R)-2-(6-methyl-4-((1-methylpiperidin-3-yl)amino)phthalazin-1-yl)-5-(trifluoromethyl)phenol], less than 20 nM; for `CN1CCC[C@@H](Nc2nnc(-c3ccc(C(F)(F)F)cc3O)c3c2nc(C2CC2)n3C)C1` [Compound 59], less than 20 nM.
In the case of `CN1CCC[C@@H](Nc2nnc(-c3ccc(C(F)(F)F)cc3O)c3cc(F)ccc23)C1` [Compound 16, 2-(7-fluoro-4-{[(3R)-1-methylpiperidin-3-yl]amino}phthalazin-1-yl)-5-(trifluoromethyl)phenol], the EC50 was less than 20 nM.
`Cn1cnc2c(O[C@@H]3CCCN(CC(F)(F)F)C3)nnc(-c3ccc(C(F)(F)F)cc3O)c21` [Compound 84] showed an EC50 greater than 1000 nM.
As for `CC(C)N1CCC[C@@H](Nc2nnc(-c3ccc(C(F)(F)F)cc3O)c3c2cnn3C)C1` [Compound 87], the EC50 was less than 20 nM.
For `Cc1ccc(-c2nnc(N[C@@H]3CCCN(C)C3)c3c2cnn3C)c(O)c1` [Compound 64], the EC50 was less than 20 nM.
On to `C[C@@H](Nc1nnc(-c2ccc(C(F)(F)F)cc2O)c2ccccc12)c1ccccc1` [Compound 7, (R)-2-(4-((1-phenylethyl)amino)phthalazin-1-yl)-5-(trifluoromethyl)phenol], for which the EC50 is greater than 1000 nM.
The compound `CN1CCC[C@@H](Nc2nnc(-c3ccc(C(F)(F)F)cc3O)c3ccncc23)C1` [Compound 17] had an EC50 of less than 20 nM.
Regarding `CCc1cnc2c(N[C@@H]3CCCN(C)C3)nnc(-c3ccc(C(F)(F)F)cc3O)c2c1` [Compound 50, (R)-2-(3-ethyl-8-((1-methylpiperidin-3-yl)amino)pyridino[2,3-d]pyridazin-5-yl)-5-(trifluoromethyl)phenol], the EC50 was less than 20 nM.
For `CN1CCC[C@@H]1CNc1nnc(-c2ccc(C(F)(F)F)cc2O)c2ccccc12` [Compound 26], the EC50 lay in the range of 500 to 1000 nM.
`CCCCNc1nnc(-c2ccc(C(F)(F)F)cc2O)c2ccccc12` [Compound 11, 2-(4-(butylamino)phthalazin-1-yl)-5-(trifluoromethyl)phenol] had an EC50 greater than 1000 nM.
`CN(C)[C@H]1CC[C@H](Nc2nnc(-c3ccc(C(F)(F)F)cc3O)c3ccccc23)CC1` [Compound 18]: the EC50 was 500 to 1000 nM.

For the origin of these results see patent publication US20240391881A1, “PHARMACEUTICAL USE AND PREPARATION METHOD FOR SUBSTITUTED HETEROARYL PHTHALAZINE DERIVATIVE” (ORIGIANT PHARMACEUTICAL CO., LTD., priority 2021, published 2024).
